Data reported in patent publication US20020173640A1, “ADAM polynucleotides, polypeptides, and antibodies” (Human Genome Sciences, Inc., priority 1999, published 2002).

Legend:
[1] = tested on: human metastatic melanoma (M24 cells); conditions: cited from earlier work
[2] = tested on: M24 cells; conditions: murine metastasis model; cited from earlier work
[3] = tested on: lamivudine-resistant isolates; conditions: cited from earlier work
[4] = tested on: protease inhibitor-resistant viruses; conditions: cited from earlier work
[5] = tested on: alpha-2-macroglobulin (α2-M); test: Complex formation between hADAM-19 and α2-M (Western blot, anti-Flag); type: binding, Bovine; conditions: 37° C. for 16 h; Western blot with anti-Flag Ab
Experimental: Complex Formation Between hADAM-19 and α2-M Human ADAM-19 transient transfected supernatant was concentrated by about 10-fold in a 0.4 ml Ultrafree MC filter unit (Low Binding Regenerated Cellulose membrane, MW cutoff 10 kDa) from Millipore. 40 μl of the concentrated sample were mixed with TBSZ buffer (50 mM Tris.HCl, 150 mM NaCl, 5 μM ZnCl2) with or without α2-M protein (Roche Molecular Biochemicals, final concentration, 1 unit/ml) in a total 50 μl reaction volume and incubated at 37° C. for 16 h. The samples were boiled in Lamini sample buffer and loaded on a 4-12% percent Tris-Giycine gel. In the case of purified hADAM-19 protein, one to 10 μl of purified protein were incubated with α2-M protein in TBSZ buffer in a total of 50 μl reaction volume and incubated at 37° C. for 16 h. Anti-Flag M2 antibody (Ab), at 1 μg/ml concentration (Sigma), was used as primary Ab. Peroxidase-labelled goat anti-mouse Ab from Amersham Pharmacia Biotech was used as secondary Ab at 1:2000 dilution.

[6] = tested on: alpha-2-macroglobulin (α2-M); test: Cleavage of α2-M by hADAM-19; type: biochemical, Bovine; conditions: 37° C.; new bands of 105 kDa and 72 kDa; dose-dependent
Experimental: The time course of hydrolysis of α2-M by hADAM-19 was examined. Ten μl of purified hADAM-19 (50 μg/ml) were mixed with 23.8 μl α2-M (0.2 unit)ml) in 66.24 μl 1× assay buffer (50 mM HEPES, pH 7.5, 0.2 M NaCl, 10 mM CaCl2, 25 μM ZnCl2 and 0.05% Brij-35) and incubated at 37° C. for 1-5 days. Trypsin was used as a positive control. The molar ratios between α2-M and hADAM-19 or trypsin were from 1:1 to 5:1. The samples were collected and boiled in SDS-PAGE sample buffer containing 5% 2-mercaptoethanol for 5-min, then loaded onto an 8% SDS-polyacrylamide gel. After electrophoresis the proteins were visualized by silver staining method.

[7] = tested on: rat tail tendon type I gelatin; test: Substrate specificity: gelatin; type: biochemical
Experimental: (§1) The following assay(s) are useful in determining the presence of protease activity. Gelatin and casein zymography are performed essentially as described (Heusen et al., Anal. Biochem., 102:196-202 (1980); Wilson et al., Journal of Urology, 149:653-658 (1993)). Samples are run on 10% polyacryamide/0.1% SDS gels containing 1% gelain orcasein, soaked in 2.5% triton at room temperature for 1 hour, and in 0.1M glycine, pH 8.3 at 37° C. 5 to 16 hours. After staining in amido black areas of proteolysis apear as clear areas agains the blue-black background. Trypsin (Sigma T8642) is used as a positive control.

[8] = tested on: bovine casein; test: Substrate specificity: casein; type: biochemical
Experimental: as §1

[9] = tested on: alpha-2 macroglobulin; test: metal-dependant proteolysis of alpha-2 macroglobulin; type: biochemical; conditions: see Example 19

## contortrostatin
[1]
  inhibition of M24 cell adhesion to laminin: not laminin
  inhibition of M24 cell adhesion to type I collagen, vitronectin, and fibronection: inhibit
[2]
  inhibition of lung colonization of M24 cells: inhibits lung colonization

## Nc1ccn([C@H]2CO[C@@H](CO)S2)c(=O)n1 [dOTC]
[3]
  activity against lamivudine-resistant isolates: retains activity against a substantial proportion of lamivudine-resistant isolates

## Cc1ccccc1CNC(=O)[C@H]1N(C(=O)[C@@H](O)[C@H](Cc2ccccc2)NC(=O)c2cccc(O)c2C)CSC1(C)C [AG-1776]
[4]
  in vitro activity against protease inhibitor-resistant viruses: in vitro activity against protease inhibitor-resistant viruses

B1: hADAM-19: Flag-tagged hADAM-19 protein (residues 26-701 of SEQ ID NO: 9) purified from transfected 293T cells (protein, listed as Homo sapiens)
chain: REPGWTRGSEEGSPKLQHELIIPQWKTSESPVREKHPLKAELRVMAEGRELILDLEKNEQLFAPSYTETHYTSSGNPQTTTRKLEDHCFYHGTVRETELSSVTLSTCRGIRGLITVSSNLSYVIEPLPDSKGQHLIYRSEHLKPPPGNCGFEHSKPTTRDWALQFTQQTKKRPRRMKREDLNSMKYVELYLVADYLEFQKNRRDQDATKHKLIEIANYVDKFYRSLNIRIALVGLEVWTHGNMCEVSENPYSTLWSFLSWRRKLLAQKYHDNAQLITGMSFHGTTIGLAPLMAMCSVYQSGGVNMDHSENAIGVAATMAHEMGHNFGMTHDSADCCSASAADGGCIMAAATGHPFPKVFNGCNRRELDRYLQSGGGMCLSNMPDTRMLYGGRRCGNGYLEDGEECDCGEEEECNNPCCNASNCTLRPGAECAHGSCCHQCKLLAPGTLCREQARQCDLPEFCTGKSPHCPTNFYQMDGTPCEGGQAYCYNGMCLTYQEQCQQLWGPGARPAPDLCFEKVNVAGDTFGNCGKDMNGEHRKCNMRDAKCGKIQCQSSEARPLESNAVPIDTTIIMNGRQIQCRGTHVYRGPEEEGDMLDPGLVMTGTKCGYNHICFEGQCRNTSFFETEGCGKKCNGHGVCNNNQNCHCLPGWAPPFCNTPGHGGSIDSGPMPPESVG
modifications: Flag tag
[5]
  complex formation with α2-M: formed a complex of 170 kDa band with α2-M
[6]
  cleavage of α2-M: cleaved α2-M
[7]
  dissolution of rat tail tendon type I gelatin: not dissolved
[8]
  dissolution of bovine casein: not dissolved

B2: Gene NO: 1: human ADAM polypeptide encoded by cDNA clone HDPDH32, homologous to murine metalloproteinase-disintegrin meltrin beta (protein, listed as Homo sapiens)
chain: MPGGAGAARLCLLAFALQPLRPRAAREPGWTRGSEEGSPKLQHELIIPQWKTSESPVREKHPLKAELRVMAEGRELILDLEKNEQLFAPSYTETHYTSSGNPQTTTRKLEDHCFYHGTVRETELSSVTLSTCRGIRGLITVSSNLSYVIEPLPDSKGQHLIYRSEHLKPPPGNCGFEHSKPTTRDWALQFTQQTKKRPRRMKREDLNSMKYVELYLVADYLEFQKNRRDQDATKHKLIEIANYVDKFYRSLNIRIALVGLEVWTHGNMCEVSENPYSTLWSFLSWRRKLLAQKYHDNAQLITGMSFHGTTIGLAPLMAMCSVYQSGGVNMDHSENAIGVAATMAHEMGHNFGMTHDSADCCSASAADGGCIMAAATGHPFPKVFNGCNRRELDRYLQSGGGMCLSNMPDTRMLYGGRRCGNGYLEDGEECDCGEEEECNNPCCNASNCTLRPGAECAHGSCCHQCKLLAPGTLCREQARQCDLPEFCTGKSPHCPTNFYQMDGTPCEGGQAYCYNGMCLTYQEQCQQLWGPGARPAPDLCFEKVNVAGDTFGNCGKDMNGEHRKCNMRDAKCGKIQCQSSEARPLESNAVPIDTTIIMNGRQIQCRGTHVYRGPEEEGDMLDPGLVMTGTKCGYNHICFEGQCRNTSFFETEGCGKKCNGHGVCNNNQNCHCLPGWAPPFCNTPGHGGSIDSGPMPPESVGPVVAGVLVAILVLAVLMLMYYCCRQNNKLGQLKPSALPSKLRQQFSCPFRVSQNSGTGHANPTFKLQTPQGKRKVINTPEILRKPSQPPPRPPPDYLRGGSPPAPLPAHLSRAARNSPGPGSQIERTESSRRPPPSRPIPPAPNCIVSQDFSRPRPPQKALPANPVPGRRSLPRPGGASPLRPPGAGPQQSRPLAALAPKFPEYRSQRAGGMISSKI
[9]
  metal-dependant proteolysis of alpha-2 macroglobulin: displayed metal-dependant proteolysis of alpha-2 macroglobulin
